The experiment has as its system osteoclasts of new-born rats. Description: osteoclast pit assay (in vitro resorption activity of osteoclasts on ivory slices). It counts as cell-based, rat. Conditions: for magnitude of the inhibition when PTH is added compared with without (in words): PTH 10^−8 M added to cultures; for inhibition of osteoclast resorption activity in vitro (in words): osteoclast pit assay, dose not given. As for the experimental part:
It will be appreciated that the osteoclast pit assay is a well established in vitro model of bone resorption and readily known to one skilled in the art. Briefly, medium containing a sample to be tested, e.g. 30 mg or less of freeze-dried hydrophilic fraction A per ml, is added to osteoclasts of new-born rats settled on ivory slices. After 24 hours of incubation, the tartrate-resistant acid phosphatase positive multi-nucleated cells, i.e. osteoclasts, are counted. Subsequently, the number of resorption pits is determined. […] For the analysis of statistical significance, the ratios of the treated groups±their respective SEMs are compared to the 95% confidence interval of the SEM of the negative control. […] The inhibitory effect on osteoclasts is assessed by counting the osteoclast resorption pits on the ivory slice. […] To assess in vitro the bone resorbing inhibitory activity, the osteoclast pit assay is used. Medium containing 30 mg or less of freeze-dried fraction per ml is added to osteoclasts of new-born rats settled on ivory slices. After 24 hours of incubation, the tartrate-resistant acid phosphatase positive multi-nucleated cells, i.e. osteoclasts, are counted. Subsequently, the number of resorption pits is determined. […] For the analysis of statistical significance, the ratios of the treated groups±their respective SEMs are compared to the 95% confidence interval of the SEM of the negative control. • a) TLC-Screening and Yields of the RP-MPLC Fractionations. Bioassay (in vitro assessment of osteoclast activity). Osteoclasts were isolated from femora and tibiae of 2-day-old rats and settled for 40 min onto 4×4 mm ivory slices used as the mineralized substrate. After washing off non-adherent cells, individual slices were transferred to 48-well tissue culture plates and incubated for 24 h at 37° C. in a 5% CO2/air atmosphere (14;15) in medium containing 10% fetal bovine serum (FBS) with or without the material to be tested. The concentration of bicarbonate in the MEM Earle's medium was reduced to 15 mM by addition of 12M HCl. In each experiment calcitonin (salmon calcitonin, Novartis Pharma, Basel, Switzerland) was added as positive control at the concentration of 10^-11 M or 10^-12 M. In one experiment parathyroid hormone (PTH; bovine 1-34, Bachem, Bubendorf, Switzerland) was added at the concentration of 10^-8 M, in order to stimulate bone resorption. For each material to be tested 8 slices were used, for the untreated control 2×8 slices were used. After fixation osteoclasts were stained for tartrate-resistant acid-phosphatase (TRAP) (kit 386-A, Sigma, Buchs, Switzerland) and were counted blinded as TRAP positive (TRAP+) multinucleated (more than 2 nuclei) cells (MNC). After removing the cells, the slices were sputter coated with gold and the resorption pits counted blinded in a process described in Vitté, C.; Fleisch, H.: Guenther, H. L. Bisphosphonates induce osteoblasts to secrete an inhibitor of osteoclast-mediated resorption. Endocrinology 1996, 137, 2324-2333. Osteoclastic resorption activity is calculated as the ratio: resorption pits/TRAP+MNC.

Entries after “also recorded” stand apart in the source; their conditions may differ.

Regarding “CT: salmon calcitonin, Novartis Pharma, positive control [reference compound]”, the “magnitude of the inhibition when PTH is added compared with without (in words)” value is listed as “somewhat smaller”. The “Pits/TRAP+ cells ± SEM” value (10^−12 M, 24 h, neg. control 0.489 ± 0.128) is on record as 0.061 ± 0.063. In addition, for the setting “10^−12 M, neg. control 0.739 ± 0.138”, the “Pits/TRAP+ cells ± SEM” value turned out to be 0.116 ± 0.030.
For the molecule `C/C=C/[S+]([O-])C[C@H](NC(=O)CC[C@H](N)C(=O)O)C(=O)O` (relative stereo) [A1-4C, γ-L-glutamyl-trans-S-1-propenyl-L-cysteine sulfoxide], the “magnitude of the inhibition when PTH is added compared with without (in words)” value is on record as “somewhat smaller” and the “inhibition of osteoclast resorption activity in vitro (in words)” value (shortened to “inhibition … in vitro (in words)”) was “only active fraction”. Moreover, the “activity on osteoclast resorption (in words)” value (0.53 mg/mL, i.e. 1.7 mM GPCS) is listed as “active”. For the same molecule, the “Pits/TRAP+ cells ± SEM” value (0.53 mg/mL, neg. control 0.739 ± 0.138) amounted to 0.325 ± 0.108. Moreover, where the note is “2 mM”, the “inhibition of osteoclast resorption activity (in words)” value is “not significant”. For the same molecule, the “resorption activity of osteoclasts (in words)” value (2, 4 and 8 mM, with or without PTH 10^−8 M (FIG. 4)) was “inhibits the resorption activity of osteoclasts dose-dependently”. Further, under “cultures not stimulated with PTH”, the minimal effective dose result is recorded as “around 2 mM”. Moreover, the “minimal effective dose, graphical interpolation from FIG. 4” value (cultures stimulated with PTH) is on record as “around 3 mM”. Moreover, the “inhibition … in vitro (in words)” value (listed as Fraction A 1-4C) is listed as “inhibited osteoclast activity nearly as strong as fraction A 1-4”. For the same molecule, the “inhibition … in vitro (in words)” value (listed as Fraction A1-4C) is “inhibits osteoclast activity similar to fraction A1-4”. The “inhibition … in vitro (in words)” value (listed as fraction A1-4C) was “significantly (p<0.5) inhibit bone resorption; also recorded: inhibiting osteoclast activity”.

Source of the values: patent US20080194492A1, “Plant Extracts for the Treatment of Incresed Bone Resorption” (priority 2003, published 2008).
